Measured values as given in patent US7820670B2 (Alcon Research, Ltd., priority 2006, dated 2010).
Where a name gives a salt, the structure may show the parent alone. Read-outs that look alike come from different tables or passages of the source.

How the values were obtained:
ROCK 1 = ROCK 1 (Homo sapiens, UniProt Q13464); assay: Rho kinase assay (IMAP ROCK-I kit, fluorescence polarization)
Procedure: (§1) The rho kinase assays were performed using a Biomek 2000 Robotic Workstation (Beckman Instruments, Palo Alto, Calif.) in a 96-well plate format. The assay was performed utilizing the IMAP ROCK-I and ROCK-II kits (Molecular Devices, Sunnyvale, Calif.) as follows. […] The substrate, enzyme, and ATP dilutions were made with the reaction buffer provided by the vendor. Test compounds were diluted in 10:10 DMSO-ethanol (vol/vol). For the actual assay, the various components were added into black, clear bottom, 96-well plates (Costar, Corning, N.Y.) in a final volume of 20μl per well. After the enzyme reaction (60 min at 23° C.), 60 μl of the binding solution was added per well and incubated for an additional 30 minutes in the dark at 23° C. Fluorescence polarization of the reaction mixtures was then measured on the Analyst™ HT instrument (Molecular Devices, Sunnyvale, Calif.).

ROCK 2 = molecular target: T1, ROCK 2 (Homo sapiens, UniProt O75116); assay: Rho kinase assay (IMAP ROCK-II kit, fluorescence polarization); format: biochemical
T1 construct: purchased Molecular Devices, Sunnyvale, Calif
T1 sequence (O75116 whole entry, species assumed): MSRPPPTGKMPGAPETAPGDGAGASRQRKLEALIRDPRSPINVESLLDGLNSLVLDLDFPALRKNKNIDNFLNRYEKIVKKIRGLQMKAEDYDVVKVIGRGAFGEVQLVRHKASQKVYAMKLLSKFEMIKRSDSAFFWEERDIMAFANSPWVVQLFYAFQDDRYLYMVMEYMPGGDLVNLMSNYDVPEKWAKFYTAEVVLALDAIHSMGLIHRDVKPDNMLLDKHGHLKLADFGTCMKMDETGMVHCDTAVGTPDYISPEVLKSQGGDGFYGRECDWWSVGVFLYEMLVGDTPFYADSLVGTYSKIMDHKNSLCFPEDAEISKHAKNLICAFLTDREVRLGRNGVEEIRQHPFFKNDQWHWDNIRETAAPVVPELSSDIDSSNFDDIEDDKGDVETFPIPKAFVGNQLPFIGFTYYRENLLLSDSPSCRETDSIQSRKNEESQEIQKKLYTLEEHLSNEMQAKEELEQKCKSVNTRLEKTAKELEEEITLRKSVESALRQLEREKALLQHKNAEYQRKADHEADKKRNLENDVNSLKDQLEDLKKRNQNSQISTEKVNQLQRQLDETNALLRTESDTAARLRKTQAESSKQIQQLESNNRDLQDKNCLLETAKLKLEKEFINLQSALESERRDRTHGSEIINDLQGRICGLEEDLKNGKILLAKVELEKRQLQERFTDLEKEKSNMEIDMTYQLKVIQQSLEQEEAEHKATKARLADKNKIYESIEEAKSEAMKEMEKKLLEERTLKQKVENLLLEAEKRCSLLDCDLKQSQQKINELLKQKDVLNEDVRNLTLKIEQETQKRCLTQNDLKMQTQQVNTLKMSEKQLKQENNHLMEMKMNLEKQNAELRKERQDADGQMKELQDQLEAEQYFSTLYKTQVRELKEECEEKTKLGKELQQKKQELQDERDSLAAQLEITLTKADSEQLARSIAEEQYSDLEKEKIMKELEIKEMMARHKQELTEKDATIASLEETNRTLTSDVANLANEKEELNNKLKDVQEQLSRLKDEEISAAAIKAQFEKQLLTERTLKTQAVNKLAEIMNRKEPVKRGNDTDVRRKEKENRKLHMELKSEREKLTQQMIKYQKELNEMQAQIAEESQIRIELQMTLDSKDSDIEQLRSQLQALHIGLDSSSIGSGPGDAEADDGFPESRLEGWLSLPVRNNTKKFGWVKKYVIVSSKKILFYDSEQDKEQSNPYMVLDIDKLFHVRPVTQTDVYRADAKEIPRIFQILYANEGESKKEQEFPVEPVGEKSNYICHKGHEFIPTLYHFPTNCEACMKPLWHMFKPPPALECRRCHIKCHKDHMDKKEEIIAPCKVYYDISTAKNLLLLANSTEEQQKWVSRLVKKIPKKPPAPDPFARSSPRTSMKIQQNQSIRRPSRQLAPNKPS
Procedure: as §1

[1] = substrate 200 nM, ATP 10 μM, 60 min at 23° C.

Chain of ROCK 1 (Q13464 whole entry, species assumed): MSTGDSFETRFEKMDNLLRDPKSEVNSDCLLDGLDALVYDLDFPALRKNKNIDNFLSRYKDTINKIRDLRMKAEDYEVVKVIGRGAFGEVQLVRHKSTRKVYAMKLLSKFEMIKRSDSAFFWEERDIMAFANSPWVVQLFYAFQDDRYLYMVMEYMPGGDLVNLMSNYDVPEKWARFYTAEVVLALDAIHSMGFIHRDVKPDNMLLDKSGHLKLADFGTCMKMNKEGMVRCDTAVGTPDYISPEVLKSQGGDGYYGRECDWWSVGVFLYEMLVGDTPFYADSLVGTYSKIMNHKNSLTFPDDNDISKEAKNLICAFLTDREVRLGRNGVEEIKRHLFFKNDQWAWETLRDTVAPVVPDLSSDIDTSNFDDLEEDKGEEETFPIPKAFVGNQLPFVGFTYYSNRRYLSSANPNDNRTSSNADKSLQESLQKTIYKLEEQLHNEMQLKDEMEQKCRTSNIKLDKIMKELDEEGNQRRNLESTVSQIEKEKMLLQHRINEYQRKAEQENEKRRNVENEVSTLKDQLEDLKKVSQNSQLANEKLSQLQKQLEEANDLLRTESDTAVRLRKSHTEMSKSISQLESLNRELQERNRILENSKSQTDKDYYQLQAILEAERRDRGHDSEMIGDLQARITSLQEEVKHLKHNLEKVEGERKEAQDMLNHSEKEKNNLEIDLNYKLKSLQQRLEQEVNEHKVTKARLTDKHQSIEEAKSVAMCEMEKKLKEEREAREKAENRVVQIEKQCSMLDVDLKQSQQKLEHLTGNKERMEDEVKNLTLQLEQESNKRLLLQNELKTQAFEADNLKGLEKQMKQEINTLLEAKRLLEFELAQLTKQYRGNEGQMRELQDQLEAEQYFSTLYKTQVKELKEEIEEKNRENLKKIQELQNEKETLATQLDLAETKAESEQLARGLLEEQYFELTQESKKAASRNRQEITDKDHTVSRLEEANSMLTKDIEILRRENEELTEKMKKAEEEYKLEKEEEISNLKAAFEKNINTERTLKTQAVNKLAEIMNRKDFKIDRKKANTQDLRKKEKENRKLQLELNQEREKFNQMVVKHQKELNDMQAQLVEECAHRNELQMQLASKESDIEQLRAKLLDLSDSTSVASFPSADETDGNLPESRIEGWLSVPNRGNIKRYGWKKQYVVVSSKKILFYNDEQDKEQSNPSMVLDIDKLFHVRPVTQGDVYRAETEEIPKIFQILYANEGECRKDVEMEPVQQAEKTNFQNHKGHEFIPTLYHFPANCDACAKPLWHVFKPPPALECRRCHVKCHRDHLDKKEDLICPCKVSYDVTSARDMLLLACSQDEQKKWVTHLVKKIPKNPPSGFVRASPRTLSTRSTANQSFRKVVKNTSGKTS

SMILES | IC50 (ROCK 1) | IC50 (ROCK 2; [1]) | IC50 (ROCK 2)
Cc1n[nH]c2ccc(-c3cnc4ccc(NC5CCCNC5)nn34)cc12 (centres unmarked) [Example 53, [3-(3-methyl-1H-indazol-5-yl)-imidazo[1,2-b]pyridazine-6-yl]-piperidin-3-yl-amine trihydrochloride] | 0.082 µM | 0.073 µM | –
c1n[nH]cc1-c1cnc2ccc(N3CCOCC3)nn12 [Example 3, 4-(3-(1H-Pyrazol-4-yl)imidazo[1,2-b]pyridazin-6-yl)morpholine] | 12 µM | 56 µM | –
CCCC/C=C/c1cnc2ccc(N[C@H]3CC[C@H](O)CC3)nn12 [Example 49, Anti-(E)-4-(3-(Hex-1-enyl)imidazo[1,2-b]pyridazin-6-ylamino)cyclohexanol] | 13 µM | 29 µM | –
CCCC/C=C/c1cnc2ccc(NCCCN)nn12 [Example 48, (E)-N^1-(3-(Hex-1-enyl)imidazo[1,2-b]pyridazin-6-yl)propane-1,3-diamine] | 57 µM | 58 µM | –
CCCC/C=C/c1cnc2ccc(NCCO)nn12 [Example 42, (E)-2-(3-(Hex-1-enyl)imidazo[1,2-b]pyridazin-6-ylamino)ethanol hydrochloride] | 17 µM | 34 µM | –
Cc1cnc2ccc(NCc3ccccn3)nn12 [Example 15, 3-Methyl-N-(pyridin-2-ylmethyl)imidazo[1,2-b]pyridazin-6-amine hydrochloride] | 67 µM | 16 µM | –
c1cc2[nH]ncc2cc1-c1cnc2ccc(N3CCNCC3)nn12 [Example 51, 3-(1H-Indazol-5-yl)-6-piperazin-1-yl-imidazo[1,2-b]pyridazine dihydrochloride] | 0.12 µM | 0.0035 µM | –
c1n[nH]cc1-c1cnc2ccc(N3CCCNCC3)nn12 [Example 56, 6-Perhydro-1,4-diazepin-1-yl-3-(1H-pyrazol-4-yl)-imidazo[1,2-b]pyridazine dihydrochloride] | 18 µM | 6.7 µM | –
CCCC/C=C/c1cnc2ccc(NCCCN3CCCC3)nn12 [Example 47, (E)-3-(Hex-1-enyl)-N-(3-(pyrrolidin-1-yl)propyl)imidazo[1,2-b]pyridazin-6-amine dihydrochloride] | 59 µM | – | 38 µM
CCCC/C=C/c1cnc2ccc(NC(CC)CO)nn12 (centres unmarked) [Example 10, (E)-2-(3-(Hex-1-enyl)imidazo[1,2-b]pyridazin-6-ylamino)butan-1-ol] | 78 µM | > 100 µM | –
CCCC/C=C\c1cnc2ccc(NCCCN3CCOCC3)nn12 [Example 27, (Z)-3-(Hex-1-enyl)-N-(3-morpholinopropyl)imidazo[1,2-b]pyridazin-6-amine hydrochloride] | 43 µM | 88 µM | –
CCCC/C=C/c1cnc2ccc(NCc3cnc(C)cn3)nn12 [Example 44, (E)-3-(Hex-1-enyl)-N-((5-methylpyrazin-2-yl)methyl)imidazo[1,2-b]pyridazin-6-amine] | 22 µM | 34 µM | –
COCc1cnc2ccc(NCCCN3CCOCC3)nn12 [Example 30, 3-(Methoxymethyl)-N-(3-morpholinopropyl)imidazo[1,2-b]pyridazin-6-amine hydrochloride] | > 100 µM | > 100 µM | –
COCCNc1ccc2ncc(C)n2n1 [Example 12, N-(2-Methoxyethyl)-3-methylimidazo[1,2-b]pyridazin-6-amine] | > 100 µM | 97 µM | –
COCc1cnc2ccc(NCc3ccccn3)nn12 [Example 34, hydrochloride] | > 100 µM | > 100 µM | –
CCCCCCc1cnc2ccc(NCCCN3CCOCC3)nn12 [Example 17, 3-Hexyl-N-(3-morpholinopropyl)imidazo[1,2-b]pyridazin-6-amine hydrochloride] | 28 µM | > 100 µM | –
CCCCC#Cc1cnc2ccc(NCCCN3CCOCC3)nn12 [Example 26, 3-(Hex-1-ynyl)-N-(3-morpholinopropyl)imidazo[1,2-b]pyridazin-6-amine hydrochloride] | 9 µM | 5.8 µM | –
CCCCC/C=C/c1cnc2ccc(NCCCN3CCOCC3)nn12 [Example 22, (E)-3-(Hept-1-enyl)-N-(3-morpholinopropyl)imidazo[1,2-b]pyridazin-6-amine hydrochloride] | 38 µM | 120 µM | –
CCCC/C=C/c1cnc2ccc(NCCCO)nn12 [Example 6, (E)-3-(3-(Hex-1-enyl)imidazo [1,2-b]pyridazin-6-ylamino)propan-1-ol fumarate] | 30 µM | 33 µM | –
CCCC/C=C/c1cnc2ccc(NCc3cccnc3)nn12 [Example 45, (E)-3-(Hex-1-enyl)-N-(pyridin-3-ylmethyl)imidazo[1,2-b]pyridazin-6-amine] | 2.3 µM | 4.7 µM | –
CCCC/C=C/c1cnc2ccc(NCCN(C)C)nn12 [Example 8, (E)-N^1-(3-(Hex-1-enyl)imidazo[1,2-b]pyridazin-6-yl)-N^2,N^2-dimethylethane-1,2-diamine fumarate] | 58 µM | 65 µM | –

SMILES | IC50 (ROCK 1) | IC50 (ROCK 2; [1]) | IC50 (ROCK 2)
CCCC/C=C/c1cnc2ccc(NCCCN3CCN(C)CC3)nn12 [Example 38, (E)-3-(Hex-1-enyl)-N-(3-(4-methylpiperazin-1-yl)propyl)imidazo[1,2-b]pyridazin-6-amine hydrochloride] | 47 µM | 97 µM | –
CCCCC#Cc1cnc2ccc(NCc3ccccn3)nn12 [Example 28, 3-(Hex-1-ynyl)-N-(pyridin-2-ylmethyl)imidazo[1,2-b]pyridazin-6-amine hydrochloride] | > 100 µM | > 100 µM | –
c1ccc(CNc2ccc3nccn3n2)nc1 [Example 33, N-(Pyridin-2-ylmethyl)imidazo[1,2-b]pyridazin-6-amine hydrochloride] | > 100 µM | 13 µM | –
CCCC/C=C/c1cnc2ccc(NCCCN(C)C)nn12 [Example 39, (E)-N^1-(3-(Hex-1-enyl)imidazo[1,2-b]pyridazin-6-yl)-N^3,N^3-dimethylpropane-1,3-diamine hydrochloride] | 1.1 µM | 0.77 µM | –
CCCC/C=C/c1cnc2ccc(NCc3ccccn3)nn12 [Example 9, (E)-3-(Hex-1-enyl)-N-(pyridin-2-ylmethyl)imidazo[1,2-b]pyridazin-6-amine fumarate] | 7 µM | 3.7 µM | –
C1=C(c2cnc3ccc(NCc4ccccn4)nn23)CCCC1 [Example 21, 3-Cyclohexenyl-N-(pyridin-2-ylmethyl)imidazo[1,2-b]pyridazin-6-amine hydrochloride] | > 100 µM | 200 µM | –
CCOCc1cnc2ccc(NCc3ccccn3)nn12 [Example 32, 3-(Ethoxymethyl)-N-(pyridin-2-ylmethyl)imidazo[1,2-b]pyridazin-6-amine hydrochloride] | > 100 µM | > 100 µM | –
Clc1cnc2ccc(NCCCN3CCOCC3)nn12 [Example 14, 3-Chloro-N-(3-morpholinopropyl)imidazo[1,2-b]pyridazin-6-amine hydrochloride] | 37 µM | – | –
CCCC/C=C/c1cnc2ccc(N3CCOCC3)nn12 [Example 5, (E)-4-(3-(Hex-1-enyl)imidazo[1,2-b]pyridazin-6-yl)morpholine fumarate] | 9.7 µM | > 100 µM | –
CCC/C=C/c1cnc2ccc(NCCCN3CCOCC3)nn12 [Example 18, (E)-N-(3-Morpholinopropyl)-3-(pent-1-enyl)imidazo[1,2-b]pyridazin-6-amine hydrochloride] | 43 µM | 88 µM | –
Cc1n[nH]c2ccc(-c3cnc4ccc(N5CCNCC5)nn34)cc12 [Example 52, 3-(3-Methyl-1H-indazol-5-yl)-6-piperazin-1-yl-imidazo[1,2-b]pyridazine trihydrochloride] | 0.027 µM | 0.014 µM | –
Cc1cnc2ccc(NCCCN3CCOCC3)nn12 [Example 16, 3-Methyl-N-(3-morpholinopropyl)imidazo[1,2-b]pyridazin-6-amine fumarate] | > 100 µM | > 100 µM | –
NC(=O)c1ccc(-c2cnc3ccc(N4CCCNCC4)nn23)cc1 [Example 58, 4-(6-Perhydro-1,4-diazepin-1-yl-imidazo[1,2-b]pyridazin-3-yl)benzamide dihydrochloride] | 56 µM | – | 16 µM
CCC/C=C/c1cnc2ccc(NCc3ccccn3)nn12 [Example 19, (E)-3-(Pent-1-enyl)-N-(pyridin-2-ylmethyl)imidazo[1,2-b]pyridazin-6-amine hydrochloride] | 2.1 µM | 2 µM | –
CCCC/C=C/c1cnc2ccc(NCc3ccncc3)nn12 [Example 43, (E)-3-(Hex-1-enyl)-N-(pyridin-4-ylmethyl)imidazo[1,2-b]pyridazin-6-amine] | 4.3 µM | 11 µM | –
CCCNc1ccc2ncc(-c3cc(C)cs3)n2n1 [Example 4, 3-(4-Methylthiophen-2-yl)-N-propylimidazo[1,2-b]pyridazin-6-amine] | > 100 µM | > 100 µM | –
OCc1cnc2ccc(NCCCN3CCOCC3)nn12 [Example 24, (6-(3-Morpholinopropylamino)imidazo[1,2-b]pyridazin-3-yl)methanol hydrochloride] | > 100 µM | > 100 µM | –
Cc1cnc2ccc(NCCN(C)C)nn12 [Example 11, N^1,N^1-Dimethyl-N^2-(3-methylimidazo[1,2-b]pyridazin-6-yl)ethane-1,2-diamine] | 36 µM | 79 µM | –
C1=C(c2cnc3ccc(NCCCN4CCOCC4)nn23)CCCC1 [Example 20, 3-Cyclohexenyl-N-(3-morpholinopropyl)imidazo[1,2-b]pyridazin-6-amine hydrochloride] | 55 µM | > 100 µM | –
c1cn2nc(NCCCN3CCOCC3)ccc2n1 [Example 35, N-(3-Morpholinopropyl)imidazo[1,2-b]pyridazin-6-amine hydrochloride] | > 100 µM | > 100 µM | –
COc1ccccc1-c1cnc2ccc(NCc3ccccn3)nn12 [Example 2, 3-(2-Methoxyphenyl)-N-(pyridin-2-ylmethyl)imidazo[1,2-b]pyridazin-6-amine fumarate] | > 100 µM | > 100 µM | –
